Structures can show the parent of a compound that is named as a salt.
Molecular target: T1, human IBAT (Homo sapiens, UniProt Q12908)
T1 construct: expressed in transfected cells; host or cells: Baby hamster kidney (BHK) cells, clone H14
T1 sequence (Q12908 1-348): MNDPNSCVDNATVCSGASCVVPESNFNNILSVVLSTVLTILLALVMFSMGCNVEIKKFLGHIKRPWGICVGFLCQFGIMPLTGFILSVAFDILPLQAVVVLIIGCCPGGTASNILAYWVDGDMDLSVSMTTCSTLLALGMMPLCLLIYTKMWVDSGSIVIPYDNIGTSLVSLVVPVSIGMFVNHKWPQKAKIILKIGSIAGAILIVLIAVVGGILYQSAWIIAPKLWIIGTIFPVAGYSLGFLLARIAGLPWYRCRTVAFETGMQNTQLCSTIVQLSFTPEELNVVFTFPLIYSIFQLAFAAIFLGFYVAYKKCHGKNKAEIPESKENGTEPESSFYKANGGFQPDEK
Experiment: In vitro assay of IBAT-mediated uptake of [14C]-taurocholate (TC) in H14 cells
Format: cell-based
Conditions: In Vitro Taurocholate Uptake, Table 10; read-out: Human TC IC50
How it was run: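 BHK cells stably expressing human IBAT (H14) were incubated 2 h at 37° C with compound and 3 μM final [14C]-taurocholate in DMEM (4.5 g/L glucose) plus 0.2% fatty acid-free BSA. After cold PBS washes, cell-associated radioactivity was measured by scintillation counting.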

IC50 [nM]	Compound
3	CCCCC1(CCCC)CS(=O)(=O)c2ccc(N(C)C)cc2[C@@H](c2ccc(OCCC[N+]34CCN(CC3)CC4)cc2)[C@H]1O [Example 1407, (4R-cis)-1-[3-[4-[3,3-Dibutyl-7-(dimethylamino)-2,3,4,5-tetrahydro-4-hydroxy-1,1-dioxido-1-benzothiepin-5-yl]phenoxy]propyl]-4-aza-1-azoniabicyclo[2.2.2]octane, 4-methylbenzenesulfonate (Salt)]
1	CCCCC1(CCCC)CS(=O)(=O)c2ccc(N(C)C)cc2[C@@H](c2ccc(OCCCC[N+]34CCN(CC3)CC4)cc2)[C@H]1O [Example 1408, (4R-cis)-1-[4-[4-[3,3-Dibutyl-7-(dimethylamino)-2,3,4,5-tetrahydro-4-hydroxy-1,1-dioxido-1-benzothiepin-5-yl]phenoxy]butyl]-4-aza-1-azoniabicyclo [2.2.2]octanemethanesulfonate (Salt)]
0.9	CCCCC1(CCCC)CS(=O)(=O)c2ccc(N(C)C)cc2[C@@H](c2ccc(OCCCC[N+]34CCN(CC3)CC4)cc2)[C@H]1O [Example 1409, (4R-cis)-1-[4-[4-[3,3-Dibutyl-7-(dimethylamino)-2,3,4,5-tetrahydro-4-hydroxy-1,1-dioxido-1-benzothiepin-5-yl]phenoxy]butyl]-4-aza-1-azoniabicyclo[2.2.2]octane-4-methylbenzenesulfonate (Salt)]
3	CCCCC1(CCCC)CS(=O)(=O)c2ccc(N(C)C)cc2[C@@H](c2ccc(OCCCCC[n+]3cccc4ccccc43)cc2)[C@H]1O [Example 1412, (4R-cis)-1-[5-[4-[3,3-Dibutyl-7-(dimethylamino)-2,3,4,5-tetrahydro-4-hydroxy-1,1-dioxido-1-benzothiepin-5-yl]phenoxy]pentyl]quinolinium, methanesulfonate (Salt)]
0.7	CCCCC1(CCCC)CS(=O)(=O)c2ccc(N(C)C)cc2[C@@H](c2ccc(OCc3cc[n+](C)cc3)cc2)[C@H]1O [Example 1428, (4R-cis)-4-[[4-[3,3-Dibutyl-7-(dimethylamino)-2,3,4,5-tetrahydro-4-hydroxy-1,1-dioxido-1,1-dioxido-1-benzothiepin-5-yl]phenoxy]methyl]-1-methylpyridinium salt with trifluoroacetic acid (1:1)]

Same assay, conditions: read-out: Human TC IC50

IC50 [nM]	Compound
17	CCCCC1(CCCC)CS(=O)(=O)c2ccc(N(C)C)cc2C(c2ccc(OCCC[n+]3ccccc3CCCO)c(F)c2)C1O (centres unmarked) [Example 1290]
13	CCCCC1(CCCC)CS(=O)(=O)c2ccc(N(C)C)cc2C(c2ccc(OCc3cccc[n+]3C)c(F)c2)C1O (centres unmarked) [Example 1291]
25	CCCCC1(CCCC)CS(=O)(=O)c2ccc(N(C)C)cc2C(c2cccc(OCCOCCOCC[P+](c3ccccc3)(c3ccccc3)c3ccccc3)c2)C1O (centres unmarked) [Example 1292]
19	CCCCC1(CCCC)CS(=O)(=O)c2ccc(N(C)C)cc2C(c2cccc(OCCOCCOCC[N+](CC)(CC)CCC(C)=O)c2)C1O (centres unmarked) [Example 1293]
11	CCCCC1(CCCC)CS(=O)(=O)c2ccc(N(C)C)cc2C(c2cccc(OCCOCCOCC[N+]3(c4ccccc4)CCCCC3)c2)C1O (centres unmarked) [Example 1294]
14	CCCCC1(CCCC)CS(=O)(=O)c2ccc(N(C)C)cc2C(c2ccc(OCc3cc[n+](CC(=O)OC(C)(C)C)cc3)c(F)c2)C1O (centres unmarked) [Example 1295]
63	CCCCC1(CCCC)CS(=O)(=O)c2ccc(N(C)C)cc2C(c2ccc(OCCOCCOc3cccc(N(CC)CC)c3)c(F)c2)C1O (centres unmarked) [Example 1296]
29	CCCCC1(CCCC)CS(=O)(=O)c2ccc(N(C)C)cc2C(c2cccc(OCCOCCOCC[n+]3ccc(C4CCC(C)CC4)cc3)c2)C1O (centres unmarked) [Example 1297]
18	CCCCC1(CCCC)CS(=O)(=O)c2ccc(N(C)C)cc2C(c2cccc(OCCOCCOCC[N+](C)(C)CCC(C)CCN(C)C)c2)C1O (centres unmarked) [Example 1298]
150	CCCCC1(CCCC)CS(=O)(=O)c2ccc([N+](C)(C)C)cc2C(c2cccc(OC)c2)C1O (centres unmarked) [Example 1301]
1400	CCCCC1(CCCC)CS(=O)(=O)c2c(O)cccc2C(c2cccc(O)c2)C1O (centres unmarked) [Example 1302]
260	CCCCC1(CCCC)CS(=O)(=O)c2ccc(N(C)C)cc2C(c2ccc(OCC[N+](C)(C)C)cc2)C1O (centres unmarked) [Example 1303]
250	CCCCC1(CCCC)CS(=O)(=O)c2ccc(NC(C)(C)C)cc2C(c2cccc(OC)c2)C1O (centres unmarked) [Example 1304]
250	CCCCC1(CCCC)CS(=O)(=O)c2c(NC)cccc2C(c2ccc(F)cc2)C1O (centres unmarked) [Example 1305]
1200	CCCCC1(CCCC)CS(=O)(=O)c2ccc(N(C)C)cc2C(c2ccc(OC(=O)C(OC)(c3ccccc3)C(F)(F)F)cc2)C1O (centres unmarked) [Example 1306]
40	CCCCC1(CC)CS(=O)(=O)c2ccc(N(C)C)cc2C(c2ccc(OS(=O)(=O)CC34CCC(CC3=O)C4(C)C)c(F)c2)C1O (centres unmarked) [Example 1308]
240	CCCCC1(CCCC)CS(=O)(=O)c2c(F)cccc2C(c2ccc(OC)cc2)C1O (centres unmarked) [Example 1309]
1160	CCCCC1(CC)CS(=O)(=O)c2ccc(N)cc2C(c2ccccc2)C1O (centres unmarked) [Example 1310]
5000	CCCCCCOc1ccc2c(c1)S(=O)(=O)CC(CC)(CCCC)C(O)C2c1ccccc1 (centres unmarked) [Example 1312]
6100	CCCCC1(CC)CS(=O)(=O)c2cc(OCC)ccc2C(c2ccccc2)C1O (centres unmarked) [Example 1313]
1670	CCCCCCOc1ccc2c(c1)C(c1ccccc1)C(O)C(CC)(CCCC)CS2(=O)=O (centres unmarked) [Example 1315]
3900	CCCCC1(CC)CS(=O)(=O)c2cc(O)ccc2C(c2ccccc2)C1O (centres unmarked) [Example 1316]
3.6	CCCCC1(CCCC)CS(=O)(=O)c2ccc(N(C)C)cc2C(c2ccc(OC)c(F)c2)C1O (centres unmarked) [Example 1347]

IC50 [nM]	Compound
100	CCCCC1(CCCC)CS(=O)(=O)c2ccc(N(C)C)cc2C(c2ccc(OCCC[N+](CCCC)(CCCC)CCCC)cc2)C1O (centres unmarked) [Example 1352]
6	CCCCC1(CCCC)CS(=O)(=O)c2ccc(N(C)C)cc2C(c2ccc(OCCOCCOCC[N+]3(C)CC[N+](C)(C)CC3)c(F)c2)C1O (centres unmarked) [Example 1354]
1.5	CCCCC1(CCCC)CS(=O)(=O)c2ccc(N(C)C)cc2C(c2cccc(OCCOCCOCC[n+]3ccccc3)c2)C1O (centres unmarked) [Example 1355]
220	CCCCC1(CCCC)CS(=O)(=O)c2ccc(N(C)C)cc2C(c2ccc[n+](C)c2)C1O (centres unmarked) [Example 1356]
8	CCCCC1(CCCC)CS(=O)(=O)c2ccc(N(C)C)cc2C(c2cccc(OCCOCCOCC[P+](CC)(CC)CC)c2)C1O (centres unmarked) [Example 1358]
14	CCCCC1(CCCC)CS(=O)(=O)c2ccc(N(C)C)cc2C(c2cccc(OCCOCCOCC[n+]3ccn(Cc4ccccc4)c3)c2)C1O (centres unmarked) [Example 1359]
3	CCCCC1(CCCC)CS(=O)(=O)c2ccc(N(C)C)cc2C(c2cccc(OCCOCCOCC[n+]3nnn4c3CCCCC4)c2)C1O (centres unmarked) [Example 1360]
4	CCCCC1(CCCC)CS(=O)(=O)c2ccc(N(C)C)cc2C(c2cccc(OCCOCCOCC[n+]3cccn3-c3ccccc3)c2)C1O (centres unmarked) [Example 1361]
19	CCCCC1(CCCC)CS(=O)(=O)c2ccc(N(C)C)cc2C(c2cccc(OCCOCCOCC[N+](CC)(CC)CCC(=O)O)c2)C1O (centres unmarked) [Example 1362]
8	CCCCC1(CCCC)CS(=O)(=O)c2ccc(N(C)C)cc2C(c2cccc(OCCOCCOCC[N+](CC)(CC)CCNS(=O)(=O)N(C)C)c2)C1O (centres unmarked) [Example 1363]
6	CCCCC1(CCCC)CS(=O)(=O)c2ccc(N(C)C)cc2C(c2cccc(OCCOCCOCC[N+](CC)(CC)CCNC(N)=O)c2)C1O (centres unmarked) [Example 1364]
8	CCCCC1(CCCC)CS(=O)(=O)c2ccc(N(C)C)cc2C(c2cccc(OCCOCCOCC[N+](CC)(CC)CCNS(=O)(=O)c3ccccc3)c2)C1O (centres unmarked) [Example 1365]
15	CCCCC1(CCCC)CS(=O)(=O)c2ccc(N(C)C)cc2C(c2ccc(OCCCC[n+]3ccc(C(=O)OC)cc3)c(F)c2)C1O (centres unmarked) [Example 1366]
2	CCCCC1(CCCC)CS(=O)(=O)c2ccc(N(C)C)cc2C(c2cccc(OCCOCCOCC[n+]3ccn(CC)c3)c2)C1O (centres unmarked) [Example 1367]
5	CCCCC1(CCCC)CS(=O)(=O)c2ccc(N(C)C)cc2C(c2cccc(OCCOCCOCC[n+]3c(C)cc(C)cc3C)c2)C1O (centres unmarked) [Example 1368]
5	CCCCC1(CCCC)CS(=O)(=O)c2ccc(N(C)C)cc2C(c2cccc(OCCOCCOCC[n+]3ccccc3-c3ccccc3)c2)C1O (centres unmarked) [Example 1369]
2	CCCCC1(CCCC)CS(=O)(=O)c2ccc(N(C)C)cc2C(c2cccc(OCCOCCOCC[N+](C)(C)C3CC(C)(C)N(C)C(C)(C)C3)c2)C1O (centres unmarked) [Example 1370]
4	CCCCC1(CCCC)CS(=O)(=O)c2ccc(N(C)C)cc2C(c2cccc(OCCOCCOCC[N+](CC)(CC)CC#N)c2)C1O (centres unmarked) [Example 1371]
4	CCCCC1(CCCC)CS(=O)(=O)c2ccc(N(C)C)cc2C(c2cccc(OCCOCCOCC[N+](CC)(CC)CCNC(=O)N(C)C)c2)C1O (centres unmarked) [Example 1372]
8	CCCCC1(CCCC)CS(=O)(=O)c2ccc(N(C)C)cc2C(c2cccc(OCCOCCOCC[N+](CC)(CC)CCNP(C)(=O)c3ccccc3)c2)C1O (centres unmarked) [Example 1373]
7	CCCCC1(CCCC)CS(=O)(=O)c2ccc(N(C)C)cc2C(c2cccc(OCCOCCOCC[N+](CC)(CC)CCNC(=O)c3ccccc3)c2)C1O (centres unmarked) [Example 1374]
2	C=C(C)C(=O)OCC[N+](CC)(CC)CCOCCOCCOc1cccc(C2c3cc(N(C)C)ccc3S(=O)(=O)CC(CCCC)(CCCC)C2O)c1 (centres unmarked) [Example 1375]
